# Test results as given in ChEMBL document CHEMBL3856212, “Synthesis, anti-proliferative and genotoxicity studies of 6-chloro-5-(2-substituted-ethyl)-1,3-dihydro-2H-indol-2-ones and 6-chloro-5-(2-chloroethyl)-3-(alkyl/ary-2-ylidene)indolin-2-ones” (Eur J Med Chem, 2016).
# Experiments:
# Assay type in all cases: functional
# [1] = Cytotoxicity against human IGROV1 cells assessed as growth inhibition after 48 hrs by SRB assay; details: IGROV-1, 48 h; for CC50: read-out: LD50 (the source's name)
# [2] = Cytotoxicity against human COLO205 cells assessed as assessed as growth inhibition at 10^-5 M after 48 hrs by SRB assay relative to control; details: COLO 205, 48 h, read-out: GI
# [3] = Cytotoxicity against human HCT116 cells assessed as assessed as growth inhibition at 10^-5 M after 48 hrs by SRB assay relative to control; details: HCT-116, 48 h, read-out: GI
# [4] = Cytotoxicity against human SK-MEL-2 cells assessed as growth inhibition after 48 hrs by SRB assay; details: SK-MEL-2, 48 h; for CC50: read-out: LD50 (the source's name)
# [5] = Cytotoxicity against human TK10 cells assessed as growth inhibition after 48 hrs by SRB assay; details: TK-10, 48 h; for CC50: read-out: LD50 (the source's name)
# [6] = Cytotoxicity against human DU145 cells assessed as growth inhibition after 48 hrs by SRB assay; details: DU-145, 48 h; for CC50: read-out: LD50 (the source's name)
# [7] = Cytotoxicity against human UO31 cells assessed as growth inhibition after 48 hrs by SRB assay; details: UO-31, 48 h; for CC50: read-out: LD50 (the source's name)
# [8] = Cytotoxicity against human RXF393 cells assessed as assessed as growth inhibition at 10^-5 M after 48 hrs by SRB assay relative to control; details: RXF 393, 48 h, read-out: GI
# [9] = Cytotoxicity against human MALME-3M cells assessed as growth inhibition after 48 hrs by SRB assay; details: for CC50: read-out: LD50 (the source's name)
# [10] = Cytotoxicity against human BT549 cells assessed as growth inhibition after 48 hrs by SRB assay; details: BT-549, 48 h; for CC50: read-out: LD50 (the source's name)
# [11] = Cytotoxicity against human DU145 cells assessed as assessed as growth inhibition at 10^-5 M after 48 hrs by SRB assay relative to control; details: DU-145, 48 h, read-out: GI
# [12] = Cytotoxicity against human A498 cells assessed as assessed as growth inhibition at 10^-5 M after 48 hrs by SRB assay relative to control; details: A498, 48 h, read-out: GI
# [13] = Cytotoxicity against human UACC257 cells assessed as growth inhibition after 48 hrs by SRB assay; details: UACC-257, 48 h; for CC50: read-out: LD50 (the source's name)
# [14] = Cytotoxicity against human NCI-H522 cells assessed as growth inhibition after 48 hrs by SRB assay; details: NCI-H522, 48 h; for CC50: read-out: LD50 (the source's name)
# [15] = Cytotoxicity against human HOP92 cells assessed as growth inhibition after 48 hrs by SRB assay; details: HOP-92, 48 h; for CC50: read-out: LD50 (the source's name)
# [16] = Cytotoxicity against human NCI-H522 cells assessed as assessed as growth inhibition at 10^-5 M after 48 hrs by SRB assay relative to control; details: NCI-H522, 48 h, read-out: GI
# [17] = Cytotoxicity against human SW1222 cells assessed as assessed as growth inhibition at 10^-5 M after 48 hrs by SRB assay relative to control; details: SW1222, 48 h, read-out: GI
Compound,GI50 [1] [nM],TGI [1] [nM],CC50 [1] [nM],inhibition of growth at 10 µM [3] [%],GI50 [4] [nM],TGI [4] [nM],CC50 [4] [nM],GI50 [6] [nM],TGI [6] [nM],CC50 [6] [nM],inhibition of growth at 10 µM [8] [%],GI50 [10] [nM],TGI [10] [nM],CC50 [10] [nM],inhibition of growth at 10 µM [12] [%],CC50 [13] [nM],GI50 [14] [nM],TGI [14] [nM],CC50 [14] [nM],inhibition of growth at 10 µM [16] [%],also measured
O=C1Cc2cc(CCn3ccnc3)c(Cl)cc2N1,1000,> 1000,> 1000,28,5780,7360,> 1000,8020,> 1000,> 1000,42,9510,> 1000,> 1000,32.2,> 1000,4740,4790,> 1000,55.2,inhibition of growth at 10 µM [2]: 29.9%; GI50 [5]: 1000 nM; TGI [5]: > 1000 nM; CC50 [5]: > 1000 nM; GI50 [7]: 5850 nM; TGI [7]: > 1000 nM; CC50 [7]: > 1000 nM; GI50 [9]: 7950 nM; TGI [9]: > 1000 nM; CC50 [9]: > 1000 nM; inhibition of growth at 10 µM [11]: 31%; GI50 [15]: 3540 nM; TGI [15]: 9150 nM; CC50 [15]: > 1000 nM
O=C1Cc2cc(CCN3CCNCC3)c(Cl)cc2N1,–,–,–,34.8,1520,> 1000,> 1000,1990,> 1000,> 1000,60.1,8180,> 1000,> 1000,33.9,> 1000,4880,> 1000,> 1000,73.6,inhibition of growth at 10 µM [2]: 40.1%; GI50 [13]: 6520 nM; TGI [13]: > 1000 nM; inhibition of growth at 10 µM [17]: 59.2%
O=C1Cc2cc(CCn3cncn3)c(Cl)cc2N1,1000,> 1000,> 1000,21,1240,> 1000,> 1000,1000,> 1000,> 1000,38,8720,> 1000,> 1000,52.9,> 1000,5290,> 1000,> 1000,67.2,GI50 [5]: 1000 nM; TGI [5]: > 1000 nM; CC50 [5]: > 1000 nM; GI50 [7]: 1000 nM; TGI [7]: > 1000 nM; CC50 [7]: > 1000 nM; GI50 [9]: 1000 nM; TGI [9]: > 1000 nM; CC50 [9]: > 1000 nM; inhibition of growth at 10 µM [11]: 3.54%; GI50 [13]: 7140 nM; TGI [13]: > 1000 nM; inhibition of growth at 10 µM [17]: 45.8%; GI50 [15]: 3020 nM; TGI [15]: > 1000 nM; CC50 [15]: > 1000 nM
